Data from patent publication US20040242459A1 (priority 2001, published 2004).
Several values for one entry are separate records, joined by “and”; a condition that tells them apart may be missing. Identical values can stand only once.

Biological target: T1, hPPARγ/GAL4 (Homo sapiens, UniProt P37231)
T1 construct: expressed in transfected cells; host or cells: COS-1 cells
Experiment: Gal-4 hPPAR transactivation assay in COS-1 cells (gamma)
Format: cell-based
Settings: two values separated by a slash in some cells
Description: The chimeric receptor expression constructs, pcDNA3-hPPARγ/GAL4, pcDNA3-hPPARδ/GAL4, pcDNA3-hPPARα/GAL4 were prepared by inserting the yeast GAL4 transcription factor DBD adjacent to the ligand binding domains (LBDs) of hPPARγ, hPPARδ, hPPARα, respectively. The reporter construct, pUAS(5×)-tk-luc was generated by inserting 5 copies of the GAL4 response element upstream of the herpes virus minimal thymidine kinase promoter and the luciferase reporter gene. pCMV-lacZ contains the galactosidase Z gene under the regulation of the cytomegalovirus promoter. COS-1 cells were seeded at 12×10^3 cells/well in 96 well cell culture plates in high glucose Dulbecco's modified Eagle medium (DMEM) containing 10% charcoal stripped fetal calf serum (Gemini Bio-Products, Calabasas, Calif.), nonessential amino acids, 100 units/ml Penicillin G and […] Streptomycin sulfate at 37° C. in a humidified atmosphere of 10% CO2. After 24 h, transfections were performed with Lipofectamine (GIBCO BRL, Gaithersburg, Md.) according to the instructions of the manufacturer. […] Luciferase activity in cell extracts was determined using Luciferase Assay Buffer (Promega, Madison, Wis.) in an ML3000 luminometer (Dynatech Laboratories, Chantilly, Va.). β-galactosidase activity was determined using β-D-galactopyranoside (Calbiochem, San Diego, Calif.).

T1 sequence (P37231 238-503 limits assumed): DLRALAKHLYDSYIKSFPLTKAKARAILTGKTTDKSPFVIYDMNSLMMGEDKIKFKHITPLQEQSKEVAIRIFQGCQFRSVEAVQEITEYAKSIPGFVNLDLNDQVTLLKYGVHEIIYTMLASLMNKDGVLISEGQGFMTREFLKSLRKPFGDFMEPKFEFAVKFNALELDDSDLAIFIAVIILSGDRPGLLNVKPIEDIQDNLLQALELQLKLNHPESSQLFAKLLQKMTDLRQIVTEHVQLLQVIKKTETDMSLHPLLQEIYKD
T1 sequence (P04386 1-147 partner limits assumed): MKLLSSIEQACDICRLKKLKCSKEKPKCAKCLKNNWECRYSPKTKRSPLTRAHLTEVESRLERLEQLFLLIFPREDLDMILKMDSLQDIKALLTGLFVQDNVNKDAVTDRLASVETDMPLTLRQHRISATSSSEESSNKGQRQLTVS

- EC50: 0.18 µM and 0.05 µM
Structure (SMILES): CCCc1cc(Oc2ccccc2)ccc1OCCc1cc2cc(CC(=O)O)ccc2[nH]1 [Compound 2, {2-[2-(4-phenoxy-2-propylphenoxy)ethyl]-1H-indol-5-yl}acetic acid]
